Results published in patent publication US20050042213A1, “Methods and pharmaceutical compositions for modulating heparanase activation and uses thereof” (InSight Biopharmaceuticals Ltd., priority 2003, published 2005).
Where a SMILES comes first, the peptide text is derived from it. Where no end group is shown, it is not given here. [ ]: non-standard residue; d: D form. The star is where a group is joined. AMC = Cc1cc(=O)oc2cc(N*)ccc12; Nle = CCCC[CH](N)C(=O)O; Cbz = O=C(OCc1ccccc1)*; NHOH = ON*

System: 293 cell extract
Experiment: Cleavage of Z-Pro-Lys-Lys-Glu-AMC (Peptide 1) by 293 cell extract and its inhibition by protease inhibitors
Assay type: biochemical, human
Set-up: % Inhibition: concentration or dose not given beside the values
Conditions: different pHs, pH range 4.5-7.5
Method: Following a 20 minutes incubation at 37° C., fluorescence released due to proteolytic activity was determined using a BMG POLARstar™ Galaxy fluorometer: excitation at 390 nm and emission at 460 nm.

| Molecule | cleavage by 293 cell extract |
| --- | --- |
| Z-Glu-His-Tyr-Gln-AMC (Cbz-EHYQ-{AMC}; SMILES Cc1cc(=O)oc2cc(NC(=O)[C@H](CCC(N)=O)NC(=O)[C@H](Cc3ccc(O)cc3)NC(=O)[C@H](Cc3c[nH]cn3)NC(=O)[C@H](CCC(=O)O)NC(=O)OCc3ccccc3)ccc12) [Peptide 2] | not cleaved |

Same assay, conditions: inhibition of Z-Pro-Lys-Lys-Glu-AMC cleavage by 293 cell extract

| Molecule | % Inhibition [%] |
| --- | --- |
| CSCC[C@@H](C=O)NC(=O)[C@H](CC(C)C)NC(=O)[C@H](CC(C)C)NC(C)=O [Calpain inhibitor II, N-Acetyl-Leu-Leu-Met-CHO] (Ac-Leu-Leu-Met-aldehyde) | 98 |
| O=C[C@H](Cc1ccc(O)cc1)NC(=O)[C@H](Cc1ccccc1)NC(=O)OCc1ccccc1 [Cathepsin L inhibitor II] (Cbz-Phe-Tyr-aldehyde) | 97 |
| CC(C)C[C@H](NC(=O)[C@H]1O[C@@H]1C(=O)O)C(=O)NCCCCN=C(N)N [Compound E-64] | 93 |
| CC(=O)N[C@@H](CC(C)C)C(=O)N[C@@H](CC(C)C)C(=O)N[C@H](C=O)CCCNC(=N)N [Leupeptin] | 97 |
| O=C(O)[C@@H](Cc1ccccc1)NS(=O)(=O)c1ccc(-c2ccccc2)cc1 [MMP 2,9 inhibitor] | 0 |
| CC(C)CC(NC(=O)C1CCCN1C(=O)OCc1ccccc1)C(=O)NCC(=O)NO (stereo not drawn) [Z-Pro-Leu-Gly hydroxamate] (Cbz-Pro-Leu-Gly-{NHOH}; configuration not given here) | 0 |
| N=C(N)c1ccccc1 [benzamidine] | 13 |

Biological target: T1, pro-heparanase (H60) (Homo sapiens, UniProt Q9Y251, K307R)
T1 sequence (Q9Y251 36-543 K307R): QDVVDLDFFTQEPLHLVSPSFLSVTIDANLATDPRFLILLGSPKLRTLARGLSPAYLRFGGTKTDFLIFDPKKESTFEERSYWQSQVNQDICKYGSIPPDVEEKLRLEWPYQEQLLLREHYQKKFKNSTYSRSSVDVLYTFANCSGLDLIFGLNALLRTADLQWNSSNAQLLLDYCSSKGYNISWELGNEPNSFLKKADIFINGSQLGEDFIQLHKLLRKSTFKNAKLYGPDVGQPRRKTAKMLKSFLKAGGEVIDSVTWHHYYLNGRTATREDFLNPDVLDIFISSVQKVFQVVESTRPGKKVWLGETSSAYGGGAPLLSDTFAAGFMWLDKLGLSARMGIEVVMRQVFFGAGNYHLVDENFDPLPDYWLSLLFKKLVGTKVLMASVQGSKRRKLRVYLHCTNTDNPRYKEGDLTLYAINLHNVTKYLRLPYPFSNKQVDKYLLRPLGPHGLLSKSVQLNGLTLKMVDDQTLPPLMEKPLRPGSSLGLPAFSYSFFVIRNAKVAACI
Experiment: Pro-heparanase activation in a cell-based assay (293 cells, DMB assay)
Conditions: inhibition of pro-heparanase activation; Table 7, 5-(5-Phenyl-furan-2-ylmethylene)rhodanine analogs

| IC50 [µM] | Molecule |
| --- | --- |
| 6 | O=C(O)CCN1C(=O)C(=Cc2ccc(-c3ccccc3Cl)o2)SC1=S [Compound 8] |
| 3 | O=C(O)CCN1C(=O)C(=Cc2ccc(-c3ccc(Cl)cc3Cl)o2)SC1=S [Compound 9] |
| 32 | O=C(O)CN1C(=O)C(=Cc2ccc(-c3ccccc3Cl)o2)SC1=S [Compound 14] |
| 2 | O=C(O)CN1C(=O)C(=Cc2ccc(-c3cccc(Cl)c3)o2)SC1=S [Compound 15] |
| 20 | O=C(O)CN1C(=O)C(=Cc2ccc(-c3cc(Cl)ccc3Cl)o2)SC1=S [Compound 17] |
| 29 | O=C(O)CN1C(=O)C(=Cc2ccc(-c3ccc([N+](=O)[O-])cc3Cl)o2)SC1=S [Compound 20] |
| 37 | O=C(O)CN1C(=O)C(=Cc2ccc(-c3ccccc3[N+](=O)[O-])o2)SC1=S [Compound 24] |
| 21 | Cc1cc([N+](=O)[O-])ccc1-c1ccc(C=C2SC(=S)N(CC(=O)O)C2=O)o1 [Compound 25] |
| 7 | O=C(O)CN1C(=O)C(=Cc2ccc(-c3cccc(C(F)(F)F)c3)o2)SC1=S [Compound 26] |
| 46 | O=C(O)CN1C(=O)C(=Cc2ccc(-c3cccc(C(=O)O)c3)o2)SC1=S [Compound 27] |
| 13 | O=C1NC(=S)SC1=Cc1ccc(-c2ccc(Br)cc2)o1 [Compound 36] |
| 18 | Cc1ccc(-c2ccc(C=C3SC(S)=NC3=O)o2)cc1Cl [Compound 37] |
| 250 | O=C1C(=Cc2ccc(-c3ccc([N+](=O)[O-])cc3Cl)o2)SC(=S)N1c1ccccc1 [Compound 46] |
| 13 | O=C(O)c1ccc(-c2ccc(C=C3SC(=S)N(c4cccc([N+](=O)[O-])c4)C3=O)o2)cc1 [Compound 56] |
| 129 | O=C1C(=Cc2ccc(-c3cccc(Cl)c3Cl)o2)SC(=S)N1c1ccccc1 [Compound 1013-0169] |

The next lines start with the molecule.

| Molecule | IC50 [µM] |
| --- | --- |
| O=C(O)CCCCCN1C(=O)C(=Cc2ccc(-c3ccc(Cl)cc3)o2)SC1=S [Compound 2] | 0.52 |
| O=C(O)CCCN1C(=O)C(=Cc2ccc(-c3ccccc3[N+](=O)[O-])o2)SC1=S [Compound 3] | 14.3 |
| O=C(O)CCN1C(=O)C(=Cc2ccc(-c3ccccc3)o2)SC1=S [Compound 7] | 2.3 |
| O=C(O)CCN1C(=O)C(=Cc2ccc(-c3ccccc3[N+](=O)[O-])o2)SC1=S [Compound 10] | 30 |
| O=C(O)CCN1C(=O)C(=Cc2ccc(-c3ccc([N+](=O)[O-])cc3)o2)SC1=S [Compound 11] | 2.8 |
| O=C(O)CN1C(=O)C(=Cc2ccc(-c3ccc(Cl)cc3)o2)SC1=S [Compound 16] | 3.8 |
| O=C(O)CN1C(=O)C(=Cc2ccc(-c3ccc(Cl)cc3Cl)o2)SC1=S [Compound 18] | 18 |
| O=C(O)CN1C(=O)C(=Cc2ccc(-c3ccc(I)cc3)o2)SC1=S [Compound 22] | 27 |
| O=C1C(=Cc2ccc(-c3cccc([N+](=O)[O-])c3)o2)SC(=S)N1CCS(=O)(=O)O [Compound 35] | 41 |
| O=C(O)c1cccc(-c2ccc(C=C3SC(=S)N(c4ccccc4)C3=O)o2)c1 [Compound 47] | 5 |
| O=C(O)c1ccc(-c2ccc(C=C3SC(=S)N(c4ccccc4)C3=O)o2)cc1 [Compound 48] | 0.95 |

Same assay, conditions: inhibition of pro-heparanase activation; Table 8, 5-(Heteroaryl-2-ylmethylene)rhodanine analogs

| Molecule | IC50 [µM] |
| --- | --- |
| Cc1c(N2C(=O)C(=Cc3ccco3)SC2=S)c(=O)n(-c2ccccc2)n1C [Compound 76] | 52 |

Same assay, conditions: inhibition of pro-heparanase activation; Table 11, heparin-binding compounds

| IC50 [µM] | Molecule |
| --- | --- |
| 2.61 | C=CCn1c(=O)/c(=C\C=C2/Nc3c(sc(C)c3C)N2CC)s/c1=C\c1sc(-c2ccccc2)c(-c2ccccc2)[n+]1CC [Compound 113] |
| 7 | C=CCn1c(=O)/c(=C\C=C2\C=CN(CC)c3ccccc32)s/c1=C\c1sc(-c2ccccc2)c(-c2ccccc2)[n+]1CC [Compound 114] |
| 3 | CN(C)c1ccc(/C=C/C2=[N+](C)c3ccccc3C2(C)C)cc1 [Compound 116] |
| 6 | CC[n+]1c(/C=C/Nc2ccccc2)sc2c3ccccc3sc21 [Compound 118] |
| 1.74 | CCN1/C(=C/C=C/c2sc3ccc(OC)cc3[n+]2CC)Sc2ccc3ccccc3c21 [Compound 119] |
| 3.5 | CCC(/C=C1\Sc2ccc3ccccc3c2N1CC)=C\c1sc2ccc(-c3ccccc3)cc2[n+]1CC [Compound 120] |

Second part, the molecule before the results:

| Molecule | IC50 [µM] |
| --- | --- |
| CCN1C=C/C(=C/C=c2/s/c(=C\c3sc(-c4ccccc4)c(-c4ccccc4)[n+]3CC)n(CC)c2=O)c2ccccc21 [Compound 115] | 12 |
| CN(C)c1ccc(/C=C/c2sc3ccc4ccccc4c3[n+]2C)cc1 [Compound 117] | 9 |
| CC[n+]1ccc(/C=C/C=C2\Sc3ccc4ccccc4c3N2C)c2ccccc21 [Compound 121] | 5.27 |
| CN1\C(=C/C=C/C=C/C=C/C2=[N+](C)c3ccccc3C2(C)C)C(C)(C)c2ccccc21 [Compound 122] | 16 |

Same assay, conditions: inhibition of pro-heparanase activation; Table 12, known inhibitors of cathepsin B activity

| IC50 [µM] | Molecule |
| --- | --- |
| 7.4 | CCCCC(C=O)NC(=O)C(CC(C)C)NC(=O)C(CC(C)C)NC(C)=O (stereo not drawn) [Compound 123, reference compound] (Ac-Leu-Leu-[Nle]-aldehyde; configuration not given here) |
| 10 | CSCCC(C=O)NC(=O)C(CC(C)C)NC(=O)C(CC(C)C)NC(C)=O (stereo not drawn) [Compound 124, reference compound] (Ac-Leu-Leu-Met-aldehyde; configuration not given here) |
| 23 | CCCNC(=O)C1OC1C(=O)NC(C(=O)N1CCCC1C(=O)OC)C(C)CC (stereo not shown) [Compound 125, reference compound] |

Further lines, the molecule ahead of its results:

| Molecule | IC50 [µM] |
| --- | --- |
| CC(=O)NC(CC(C)C)C(=O)NC(CC(C)C)C(=O)NC(C=O)CCCNC(=N)N (stereo not shown) [Compound 126, reference compound] | 26 |
| CC(C)CC(NC(=O)C1OC1C(=O)O)C(=O)NCCCCNC(=N)N (stereo not shown) [Compound 127, reference compound] | 32 |

System: not listed separately
Experiment: Heparin binding of compounds (heparin sepharose CL-6B beads)
Conditions: compound at 5 uM
Method: Heparin binding—5 μM of the selected compound was prepared in a solution of PBS pH 7.2 with 0.05% Tween and 5% DMSO. […] Excess water was discarded by filtration using a Multiscreen vacuum manifold (Millipore, Cat No. MAVM 096 00). 200 μl of each compound tested was transferred to three wells of the filter plate—one empty well, one with sepharose CL-6B and one with heparin sepharose CL-6B. Plates were rotated for 2 hrs at 37° C. followed by filtration to a new 96 well clear plate, using a Multiscreen vacuum manifold. The absorbance spectrum of the filtrate in each well was determined using a VERSAmax plate reader (Molecular devices). Percent of heparin binding was calculated from the binding to heparin sepharose CL-6B as compared to the binding of the compound to the control sepharose CL-6B beads.

| Binding to heparin (5 uM) [%] | Molecule |
| --- | --- |
| 73 | C=CCn1c(=O)/c(=C\C=C2/Nc3c(sc(C)c3C)N2CC)s/c1=C\c1sc(-c2ccccc2)c(-c2ccccc2)[n+]1CC [Compound 113] |
| 48 | C=CCn1c(=O)/c(=C\C=C2\C=CN(CC)c3ccccc32)s/c1=C\c1sc(-c2ccccc2)c(-c2ccccc2)[n+]1CC [Compound 114] |
| 71 | CN(C)c1ccc(/C=C/C2=[N+](C)c3ccccc3C2(C)C)cc1 [Compound 116] |
| 61 | CC[n+]1c(/C=C/Nc2ccccc2)sc2c3ccccc3sc21 [Compound 118] |
| 51 | CCN1/C(=C/C=C/c2sc3ccc(OC)cc3[n+]2CC)Sc2ccc3ccccc3c21 [Compound 119] |
| 61 | CCC(/C=C1\Sc2ccc3ccccc3c2N1CC)=C\c1sc2ccc(-c3ccccc3)cc2[n+]1CC [Compound 120] |

Further lines, the molecule ahead of its results:

| Molecule | Binding to heparin (5 uM) [%] |
| --- | --- |
| CCN1C=C/C(=C/C=c2/s/c(=C\c3sc(-c4ccccc4)c(-c4ccccc4)[n+]3CC)n(CC)c2=O)c2ccccc21 [Compound 115] | 66 |
| CN(C)c1ccc(/C=C/c2sc3ccc4ccccc4c3[n+]2C)cc1 [Compound 117] | 66 |
| CC[n+]1ccc(/C=C/C=C2\Sc3ccc4ccccc4c3N2C)c2ccccc21 [Compound 121] | 47 |
| CN1\C(=C/C=C/C=C/C=C/C2=[N+](C)c3ccccc3C2(C)C)C(C)(C)c2ccccc21 [Compound 122] | 65 |

Biological target: T2, Heparanase (Homo sapiens, UniProt Q9Y251, K307R)
T2 sequence (Q9Y251 158-543 K307R limits assumed): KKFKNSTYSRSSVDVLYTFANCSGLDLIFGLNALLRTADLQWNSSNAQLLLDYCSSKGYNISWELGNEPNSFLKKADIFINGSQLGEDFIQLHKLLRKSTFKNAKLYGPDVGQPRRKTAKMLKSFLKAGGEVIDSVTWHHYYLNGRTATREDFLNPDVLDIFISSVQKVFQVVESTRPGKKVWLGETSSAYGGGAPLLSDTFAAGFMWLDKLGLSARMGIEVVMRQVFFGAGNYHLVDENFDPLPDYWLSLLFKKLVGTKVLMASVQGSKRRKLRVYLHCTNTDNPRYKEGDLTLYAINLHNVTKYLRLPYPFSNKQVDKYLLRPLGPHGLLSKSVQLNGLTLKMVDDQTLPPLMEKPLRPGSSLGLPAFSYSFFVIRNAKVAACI
T2 sequence (Q9Y251 36-109 limits assumed): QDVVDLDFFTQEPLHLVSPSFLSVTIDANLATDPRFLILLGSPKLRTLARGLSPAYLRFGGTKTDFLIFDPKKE
Experiment: Dimerization assay (H53 hetero-dimer formation, di-methyl-methylene-blue)
Assay type: biochemical
Conditions: inhibition of H53 hetero-dimer formation by H8-derived peptides; read-out: IC50 H53
Description: Dimerization assay—Activation assay using di-methyl-methylene-blue was effected as described in U.S. Pat. No. 6,190,875.

| Molecule | IC50 [µM] |
| --- | --- |
| CPAYLRFGGTKTDFLIFDPLLE [Pep-7] | 7 |
